Experiments:
Type in all cases: in vivo
[1] = test system: wheat leaf blotch fungus (Septoria tritici); experiment: Wheat leaf blotch control test, spray after inoculation; details: 50 ppm sprayed on wheat (APOGEE) 3 days after inoculation
[2] = test system: target spot fungus (Corynespora cassiicola); experiment: Cucumber target spot control test, foliar spray before inoculation; details: 200 ppm sprayed on cucumber (SAGAMI HANJIRO); inoculated one day after spraying; 7 days
Method: (§1) The control effect was evaluated by visually observing the area of lesion on each of test plants at the time of investigation, and comparing the area of lesion spots on a plant treated with the present compound with that on an untreated plant.
Each of plastic pots was filled with soil and cucumber (cultivar: SAGAMI HANJIRO) was sowed and grown in a greenhouse for 19 days. Then, each water dilution prepared by adjusting so as to contain a predetermined concentration (200 ppm) of the present compound 6 was sprayed over stems and leaves of the cucumber so that it sufficiently adhered to the surface of the leaves of the cucumber. After spraying, the plant was air-dried. After one day, an aqueous suspension containing spores of target spot fungus […]. After the inoculation, the plant was cultivated in a greenhouse at 24° C. in the daytime and 20° C. at night for 7 days, and then the area of lesion was investigated. As a result, the area of lesion on the plant treated with the present compound 6 was 30% or less of that on an untreated plant.

[3] = test system: cotton aphid (Aphis gossypii); experiment: Cotton aphid control test on sprayed cucumber; details: 500 ppm, 20 mL sprayed on cucumber; adults and larvae; after 6 days
Method: Thirty (30) heads of cotton aphid (Aphis gossypii) (including adults and larvae) were released on the leaves of cucumber (cultivar: SAGAMI HANJIRO FUSHINARI) grown in a polyethylene cup until the first true leaf was developed. Next day, 20 mL of the test chemical solution was sprayed.
Control value (%)={1−(Cb×Tai)/(Cai×Tb)}×100
wherein symbols in the equation represent the followings: […]
Cb: Number of insects before spraying chemical solution in untreated area;
Cai: Number of surviving insects in untreated area;
Tb: Number of insects before spraying chemical solution in treated area; and
Tai: Number of surviving insects in treated area.

[4] = test system: wheat rust fungus (Puccinia recondita); experiment: Wheat rust control test, foliar spray before inoculation; details: 200 ppm sprayed on wheat (SHIROGANE); inoculated 5 days after spraying
Method: as §1
Each of plastic pots was filled with soil and wheat (cultivar: SHIROGANE) was sowed and grown in a greenhouse for 9 days. Then, each water dilution prepared by adjusting so as to contain a predetermined concentration (200 ppm) of any one compound of the present compounds 12, and 14 to 16 was sprayed over stems and leaves of the wheat so that it sufficiently adhered to the surface of the leaves of the wheat. After spraying, the plant was air-dried and cultivated at 20° C. for 5 days under illumination, and then inoculated by sprinkling with spores of wheat rust fungus (Puccinia recondita). After the inoculation, the plant was placed at 23° C. for one day under dark and high humidity condition, and cultivated under illumination at 20° C. for 8 days, and then the area of lesion was investigated.

[5] = test system: barley net blotch fungus (Pyrenophora teres); experiment: Barley net blotch control test, foliar spray before inoculation; details: 500 ppm sprayed on barley (NISHINOHOSHI); inoculated 2 days after spraying
Method: as §1
Each of plastic pots was filled with soil and barley (cultivar: NISHINOHOSHI) was sowed and grown in a greenhouse for 7 days. Then, each water dilution prepared by adjusting so as to contain a predetermined concentration (500 ppm) of any one compound of the present compounds 1, and 3 to 16 was sprayed over stems and leaves of the barley so that it sufficiently adhered to the surface of the leaves of the barley. After spraying, the plant was air-dried. After 2 days, an aqueous suspension containing spores of barley net blotch fungus (Pyrenophora teres) was sprayed to inoculate the spores. After completion of the inoculation, the plant was placed for 3 days in a greenhouse at 23° C. in the daytime and 20° C. at night under high humidity condition and cultivated in a greenhouse for 7 days, and then the area of lesion was investigated. As a result, the area of lesion on the plant treated with the present compound(s) 1, or 3 to 16 was 30% or less of that on an untreated plant.

Structure (SMILES): Cn1nnn(-c2cnn(C(C)(C)C)c2COc2nc(-c3ccc(Cl)cc3)cs2)c1=O [present compound 3]
- area of lesion on treated plant relative to that on an untreated plant [1]: ≤ 30%

Structure (SMILES): Cn1nnn(-c2cccnc2COc2ccn(-c3ccc(Cl)cc3)n2)c1=O [present compound 6, 1-(2-{[1-(4-chlorophenyl)-1H-pyrazol-3-yl]oxymethyl}-pyridin-3-yl)-4-methyl-1,4-dihydrotetrazol-5-one]
- area of lesion on treated plant relative to that on an untreated plant [2]: ≤ 30%

Structure (SMILES): COc1ccccc1-n1ccc(OCc2c(-n3nnn(C)c3=O)cnn2C(C)(C)C)n1 [present compound 12, 1-(1-tert-butyl-5-{[1-(2-methoxyphenyl)-1H-pyrazol-3-yl]oxymethyl}-1H-pyrazol-4-yl)-4-methyl-1,4-dihydrotetrazol-5-one]
- Control value [3]: ≥ 90%
- area of lesion on treated plant relative to that on an untreated plant [4]: ≤ 30%

Structure (SMILES): Cn1nnn(-c2cnn(C(C)(C)C)c2COc2ccn(-c3ccc(Cl)cc3)n2)c1=O [present compound 1, 1-(1-tert-butyl-5-{[1-(4-chlorophenyl)-1H-pyrazol-3-yl]oxymethyl}-1H-pyrazol-4-yl)-4-methyl-1,4-dihydrotetrazol-5-one]
- area of lesion on treated plant relative to that on an untreated plant [5]: ≤ 30%

From patent US20160272622A1, “TETRAZOLINONE COMPOUND AND USE THEREOF” (SUMITOMO CHEMICAL COMPANY, LIMITED, priority 2013, published 2016)
